Common to all, as to type: functional
For one experiment, the system named is Staphylococcus aureus. Nature of the experiment: Antibacterial activity against methicillin-resistant Staphylococcus aureus ATCC 33591.
Another experiment deals with Enterococcus faecalis. Nature of the experiment: Antibacterial activity against vancomycin-resistant Enterococcus faecalis ATCC 51299.
In another experiment the test system is Escherichia coli. Description: Antibacterial activity against Escherichia coli ATCC 25922.

Values after ≈ are worked out from the molar mass of the structure shown.

In the case of `N=C1N(CCc2cc(C(F)(F)F)cc(C(F)(F)F)c2)[C@H](CC2CCCCC2)CN1[C@@H](CC1CCCCC1)CN1CCCC1CN1C(N)=NC[C@@H]1Cc1ccccc1` (some centres undefined), the MBC in the experiment on Staphylococcus aureus was under 2.5 mg/L; in the experiment on Enterococcus faecalis, under 2.5 mg/L; in the experiment on Escherichia coli it was 5 mg/L (≈ 6.23 µM). For the same compound, the MIC against Staphylococcus aureus is under 2.5 mg/L; with Enterococcus faecalis, under 2.5 mg/L; with Escherichia coli it was 5 mg/L (≈ 6.23 µM).
Regarding `CCCC[C@@H]1CN([C@@H](CC2CCCCC2)CN2CCCC2CN2C(N)=NC[C@@H]2Cc2ccccc2)C(=N)N1CC(C)c1ccc(CC(C)C)cc1` (some centres undefined), the MBC in the experiment with Staphylococcus aureus was 2.5 mg/L (≈ 3.59 µM); in the experiment with Enterococcus faecalis, under 2.5 mg/L; against Escherichia coli, over 10 mg/L. Moreover, the values for the MIC in the experiment on Staphylococcus aureus, against Enterococcus faecalis and against Escherichia coli were under 2.5 mg/L, under 2.5 mg/L and over 10 mg/L, respectively.
In the case of `CCCC[C@@H]1CN([C@H](Cc2ccc3ccccc3c2)CN2CCCC2CN2C(N)=NC[C@@H]2Cc2ccccc2)C(=N)N1CCc1cc(C(F)(F)F)cc(C(F)(F)F)c1` (some centres undefined), the figures for the MBC against Staphylococcus aureus, against Enterococcus faecalis and in the experiment on Escherichia coli were under 2.5 mg/L, over 10 mg/L and over 10 mg/L, respectively. Moreover, the figures for the MIC against Staphylococcus aureus, in the experiment on Enterococcus faecalis and with Escherichia coli were under 2.5 mg/L, under 2.5 mg/L and over 10 mg/L, respectively.
As for `CC(C)Cc1ccc(C(C)CN2C(=N)N([C@@H](CC3CCCCC3)CN3CCCC3CN3C(N)=NC[C@@H]3Cc3ccccc3)C[C@H]2CC2CCCCC2)cc1` (some centres undefined), the results for the MBC with Staphylococcus aureus, with Enterococcus faecalis and with Escherichia coli were under 2.5 mg/L, under 2.5 mg/L and over 10 mg/L, respectively. In addition, the MIC against Staphylococcus aureus is under 2.5 mg/L; in the experiment on Enterococcus faecalis, under 2.5 mg/L; in the experiment on Escherichia coli it was over 10 mg/L.
As to `CCCC[C@@H]1CN([C@@H](CC2CCCCC2)CN2CCCC2CN2C(N)=NC[C@@H]2Cc2ccccc2)C(=N)N1CCc1cc(C(F)(F)F)cc(C(F)(F)F)c1` (some centres undefined), the MBC with Staphylococcus aureus was under 2.5 mg/L; against Enterococcus faecalis, under 2.5 mg/L; against Escherichia coli, over 10 mg/L. Moreover, the MIC was under 2.5 mg/L against Staphylococcus aureus, under 2.5 mg/L against Enterococcus faecalis and over 10 mg/L against Escherichia coli.
In the case of `CCCC[C@@H]1CN([C@H](CC2CCCCC2)CN2CCCC2CN2C(N)=NC[C@@H]2Cc2ccccc2)C(=N)N1CC(C)c1ccc(CC(C)C)cc1` (some centres undefined), the results for the MBC against Staphylococcus aureus, with Enterococcus faecalis and in the experiment with Escherichia coli were under 2.5 mg/L, under 2.5 mg/L and over 10 mg/L, respectively. For the same compound, the values for the MIC with Staphylococcus aureus, in the experiment with Enterococcus faecalis and in the experiment on Escherichia coli were under 2.5 mg/L, under 2.5 mg/L and over 10 mg/L, respectively.
In the case of `CC(C)Cc1ccc(C(C)CN2C(=N)N([C@@H](CC3CCCCC3)CN3CCCC3CN3C(N)=NC[C@@H]3C)C[C@@H]2CC2CCCCC2)cc1` (some centres undefined), the MBC is 2.5 mg/L (≈ 3.79 µM) against Staphylococcus aureus, over 10 mg/L against Enterococcus faecalis and 5 mg/L (≈ 7.58 µM) against Escherichia coli. Further, the MIC against Staphylococcus aureus is under 2.5 mg/L; against Enterococcus faecalis it was under 2.5 mg/L; against Escherichia coli it was 5 mg/L (≈ 7.58 µM).
Consider `CCCC[C@@H]1CN([C@@H](CC2CCCCC2)CN2CCCC2CN2C(N)=NC[C@@H]2C)C(=N)N1CCc1cc(C(F)(F)F)cc(C(F)(F)F)c1` (some centres undefined), for which the MBC was 2.5 mg/L (≈ 3.65 µM) in the experiment on Staphylococcus aureus, over 10 mg/L with Enterococcus faecalis and over 10 mg/L in the experiment on Escherichia coli. In addition, the MIC with Staphylococcus aureus is 2.5 mg/L (≈ 3.65 µM); with Enterococcus faecalis, over 10 mg/L; in the experiment with Escherichia coli, over 10 mg/L.
`N=C1N(CCc2cc(C(F)(F)F)cc(C(F)(F)F)c2)[C@@H](CC2CCCCC2)CN1[C@H](Cc1ccc2ccccc2c1)CN1CCCC1CN1C(N)=NC[C@@H]1Cc1ccccc1` (some centres undefined): the MBC against Staphylococcus aureus is under 2.5 mg/L; in the experiment with Enterococcus faecalis, under 2.5 mg/L; against Escherichia coli, over 10 mg/L. Further, the MIC in the experiment on Staphylococcus aureus is under 2.5 mg/L; in the experiment with Enterococcus faecalis it was under 2.5 mg/L; with Escherichia coli, over 10 mg/L.

The values above are taken from ChEMBL document CHEMBL1146892, “Pyrrolidine bis-cyclic guanidines with antimicrobial activity against drug-resistant Gram-positive pathogens identified from a mixture-based combinatorial library” (2006).
